Results published in patent US10000454B2, “Antidiabetic tricyclic compounds” (Merck Sharp & Dohme Corp., priority 2014, dated 2018).

Legend:
Human GPR40 [1] = target: T1, Human GPR40 (Homo sapiens, UniProt O14842); experiment: Inositol Phosphate Turnover (IP1) Assay; type: cell-based; set-up: expressed in transfected cells; host or cells: HEK cells (stably expressing the aequorin reporter); settings: HEK cells stably expressing human GPR40, CisBio IP-One kit
Experimental: (§1) Human and mouse GPR40 stable cell-lines were generated in CHO cells stably expressing NFAT BLA (Beta-lactamase). A human GPR40 stable cell-line was generated in HER cells stably expressing the aequorin expressing reporter. The expression plasmids were transfected using lipofectamine (Life Technologies) following manufacturer's instructions. Stable cell-lines were generated following drug selection.
The assay is performed in 384-well format. HEK cells stably expressing human GPR40 are plated at 15,000 cells per well in growth medium (DMEM/10% fetal calf serum). Cell plates are then incubated 16 hours at 37 degrees in a 5% CO2 incubator.
Measurement of Inositol Phosphate Turnover (IP1) is performed using the CisBio IP-One kit (Part number 62IPAPEB). After the 16 hour incubation, the cells are washed with HEPES buffer and 10 ul of stimulation buffer (prepared as described in the kit) is added to each well. In a separate plate, compounds are diluted in DMSO (400-fold over the final concentration in the assay well) and 25 nl is acoustically transferred to the appropriate well in the assay cell plate. The plates are then incubated for 60 minutes at 37 degrees. 10 ul of detection buffer (also prepared as described in the IP-One kit) is added to each well and the plates are incubated for 60 minutes in the dark. The plates are then read in a Perkin Elmer EnVision or equivalent reader able to measure FRET. Fluorescent ratio of emission at 665 and 620 nm is then converted to IP1 concentration by back calculating from an IP1 standard curve prepared at the time of the assay.

Human GPR40 [2] = target: T1, Human GPR40; experiment: FLIPR assay, agonist-induced calcium mobilization; type: cell-based; set-up: expressed in transfected cells; settings: GPR40/CHO NFAT BLA cells
Experimental: as §1
FLIPR (Fluorimetric Imaging Plate Reader, Molecular Devices) assays were performed to measure agonist-induced calcium mobilization of the stable clones. For the FLIPR assay, one day before assay, GPR40/CHO NFAT BLA cells were seeded into black-wall-clear-bottom 384-well plates (Costar) at 1.4×10e4 cells/20 μL medium/well. The cells were incubated with 20 μl/well of the assay buffer (HMS, 0.1% BSA, 20 mM HEPES, 2.5 mM probenecid, pH 7.4) containing 8 μM fluo-4, AM, 0.08% pluronic acid at room temperature for 100 minutes. Fluorescence output was measured using FLIPR. Compounds were dissolved in DMSO and diluted to desired concentrations with assay buffer. 13.3 μL/well of compound solution was added.

T1 sequence (O14842 whole entry): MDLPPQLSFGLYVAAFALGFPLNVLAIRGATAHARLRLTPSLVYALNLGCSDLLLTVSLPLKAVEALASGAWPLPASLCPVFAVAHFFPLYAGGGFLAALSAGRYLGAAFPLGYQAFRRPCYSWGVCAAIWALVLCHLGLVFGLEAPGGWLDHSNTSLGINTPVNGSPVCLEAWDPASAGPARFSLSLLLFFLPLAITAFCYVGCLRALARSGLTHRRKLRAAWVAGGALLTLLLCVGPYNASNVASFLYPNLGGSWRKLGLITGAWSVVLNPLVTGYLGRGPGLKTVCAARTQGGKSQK

Structure (SMILES) | EC50 (Human GPR40 [1]) | EC50 (Human GPR40 [2])
CC1(C)CC(c2ccccc2C(F)(F)F)c2cc(COc3cc4c(cn3)[C@@]3(C)[C@@H](C4)[C@@H]3C(=O)O)c(F)cc21 (single isomer, unassigned) [Example 75] | 157 nM | –
O=C(O)[C@H]1[C@@H]2Cc3cc(OCc4ccc5c(c4)C(c4ccccc4C(F)(F)F)CC5c4ccccc4)ncc3[C@@H]21 (stereo partly drawn) [Example 18, (5aR,6S,6aS)-3-((1-phenyl-3-(2-(trifluoromethyl)phenyl)-2,3-dihydro-1H-inden-5-yl)methoxy)-5,5a,6,6a-tetrahydrocyclopropa[4,5]cyclopenta[1,2-c]pyridine-6-carboxylic acid] | 24.6 nM | 13.2 nM
O=C(O)[C@H]1[C@@H]2Cc3cc(OCc4ccc5c(c4)N(c4ccccc4C(F)(F)F)CC5)ncc3[C@@H]21 [Example 33] | 26.2 nM | 15.3 nM
CC1(C)CC(c2c(F)cccc2F)c2cc(COc3cc4c(cn3)[C@H]3[C@@H](C4)[C@@H]3C(=O)O)ccc21 (stereo partly drawn) [Example 10, (5aR,6S,6aS)-3-((3-(2,6-difluorophenyl)-1,1-dimethyl-2,3-dihydro-1H-inden-5-yl)methoxy)-5,5a,6,6a-tetrahydro-cyclopropa[4,5]cyclopenta [1,2-c]pyridine-6-carboxylic acid] | 38.9 nM | 4.9 nM
O=C(O)[C@H]1[C@@H]2Cc3cc(OCc4ccc5c(c4)C(c4ccccc4C(F)(F)F)CC54CCC4)ncc3[C@@H]21 (stereo partly drawn) [Example 6, (5aR,6S,6aS)-3-((3′-(2-(trifluoromethyl)phenyl)-2′,3′-dihydrospiro[cyclobutane-1,1′-inden]-5′-yl)methoxy)-5,5a,6,6a-tetrahydrocyclopropa[4,5]cyclopenta[1,2-c]pyridine-6-carboxylic acid] | 22.6 nM | 22.9 nM
CC1(C)CC(c2ccccc2Cl)c2cc(COc3cc4c(cn3)[C@H]3[C@@H](C4)[C@@H]3C(=O)O)ccc21 (stereo partly drawn) [Example 11, (5aR,6S,6aS)-3-((3-(2-chlorophenyl)-1,1-dimethyl-2,3-dihydro-1H-inden-5-yl)methoxy)-5,5a,6,6a-tetrahydro-cyclopropa[4,5]cyclopenta [1,2-c]pyridine-6-carboxylic acid] | 35.1 nM | 17.8 nM
O=C(O)[C@H]1[C@@H]2Cc3cc(OCc4cc5c(cc4F)CCOC5c4ccccc4C(F)(F)F)ncc3[C@@H]21 (stereo partly shown) [Example 59] | 97.3 nM | –
O=C(O)[C@H]1[C@@H]2Cc3cc(OCc4cc5c(cc4F)CCC5c4ccccc4C(F)(F)F)ncc3[C@@H]21 (stereo partly drawn) [Example 20, (5aR,6S,6aS)-3-((6-fluoro-3-(2-(trifluoromethyl)phenyl)-2,3-dihydro-1H-inden-5-yl)methoxy)-5,5a,6,6a-tetrahydrocyclopropa[4,5]cyclopenta[1,2-c]pyridine-6-carboxylic acid] | 10.3 nM | –
CC1(C)CC(C)(C)c2cc(COc3cc4c(cn3)[C@H]3[C@@H](C4)[C@@H]3C(=O)O)c(F)cc21 [Example 76, (5aR,6S,6aS)-3-((6-fluoro-1,1,3,3-tetramethyl-2,3-dihydro-1H-inden-5-yl)methoxy)-5,5a,6,6a-tetrahydrocyclopropa[4,5]cyclopenta[1,2-c]pyridine-6-carboxylic acid] | 17.3 nM | –
COc1ccc(F)c(C2CC(C)(C)c3cc(F)c(COc4cc5c(cn4)[C@H]4[C@@H](C5)[C@@H]4C(=O)O)cc32)c1 (stereo partly drawn) [Example 45, (5aR,6S,6aS)-3-((6-fluoro-3-(2-fluoro-5-methoxyhenyl)-1,1-dimethyl-2,3-dihydro-1H-inden-5-yl)methoxy)-5,5a,6,6a-tetrahydro-cyclopropa[4,5]cyclopenta [1,2-c]pyridine-6-carboxylic acid] | 223 nM | –
O=C(O)[C@H]1[C@@H]2Cc3cc(OCc4cccc5c4CCC5c4ccccc4C(F)(F)F)ncc3[C@@H]21 (single isomer, unassigned) [Example 64] | 154 nM | –
O=C(O)[C@H]1[C@@H]2Cc3cc(OCc4cc5c(cc4F)C(n4cccn4)CC5c4ccccc4C(F)(F)F)ncc3[C@@H]21 (single isomer, unassigned) [Example 57] | 1.78 nM | –
CC1(C)CCN(c2ccccc2C(F)(F)F)c2c1ccc(COc1cc3c(cn1)[C@H]1[C@@H](C3)[C@@H]1C(=O)O)c2F [Example 52, (5aR,6S,6aS)-3-((8-fluoro-4,4-dimethyl-1-(2-(trifluoromethyl)phenyl)-1,2,3,4-tetrahydroquinolin-7-yl)methoxy)-5,5a,6,6a-tetrahydrocyclopropa[4,5]cyclopenta[1,2-c]pyridine-6-carboxylic acid] | 29.7 nM | –
CC1(C)OC(c2ccccc2C(F)(F)F)c2cc(COc3cc4c(cn3)[C@H]3[C@@H](C4)[C@@H]3C(=O)O)c(F)cc21 (stereo partly drawn) [Example 41, (5aR,6S,6aS)-3-((6-fluoro-1,1-dimethyl-3-(2-(trifluoromethyl)phenyl)-1,3-dihydroisobenzofuran-5-yl)methoxy)-5,5a,6,6a-tetrahydrocyclopropa[4,5]cyclopenta[1,2-c]pyridine-6-carboxylic acid] | 1.99 nM | –
O=C(O)[C@H]1[C@@H]2Cc3cc(OCc4cccc5c4CCC5c4ccccc4C(F)(F)F)ncc3[C@@H]21 (single isomer, unassigned) [Example 65] | 124 nM | –
O=C(O)[C@H]1[C@@H]2Cc3cc(OCc4cc5c(ccn5Cc5ccccc5C(F)(F)F)cc4F)ncc3[C@@H]21 [Example 78, (5aR,6S,6aS)-3-((5-fluoro-1-(2-(trifluoromethyl)benzyl)-1H-indol-6-yl)methoxy)-5,5a,6,6a-tetrahydrocyclopropa[4,5]cyclopenta[12-c]pyridine-6-carboxylic acid] | 195 nM | –
O=C(O)[C@H]1[C@@H]2Cc3cc(OCc4cc5c(-c6ccccc6C(F)(F)F)cn(-c6ccccc6)c5cc4F)ncc3[C@@H]21 [Example 63, (5aR,6S,6aS)-3-((6-fluoro-1-phenyl-3-(2-(trifluoromethyl)phenyl)-1H-indol-5-yl)methoxy)-5,5a,6,6a-tetrahydrocyclopropa[4,5]cyclopenta[1,2-c]pyridine-6-carboxylic acid] | 28.2 nM | –
CC1(C)CC(c2ccccc2C(F)(F)F)c2cc(COc3cc4c(cn3)[C@@H]3[C@@H](C(=O)O)[C@@H]3C4(F)F)c(F)cc21 (stereo partly drawn) [Example 24, (5aR,6R,6aR)-5,5-difluoro-3-((6-fluoro-1,1-dimethyl-3-(2-(trifluoromethyl)phenyl)-2,3-dihydro-1H-inden-5-yl)methoxy)-5,5a,6,6a-tetrahydrocyclopropa[4,5]cyclopenta[1,2-c]pyridine-6-carboxylic acid] | 53 nM | –
CN(C)[C@H]1C[C@H](c2ccccc2C(F)(F)F)c2cc(COc3cc4c(cn3)[C@H]3[C@@H](C4)[C@@H]3C(=O)O)c(F)cc21 [Example 79, (5aR,6S,6aS)-3-(((1S,3S)-1-(dimethylamino)-6-fluoro-3-(2-(trifluoromethyl)phenyl)-2,3-dihydro-1H-inden-5-yl)methoxy)-5,5a,6,6a-tetrahydrocyclopropa[4,5]cyclopenta[1,2-c]pyridine-6-carboxylic acid, or (5aR,6S,6aS)-3-(((1R,3R)-1-(dimethylamino)-6-fluoro-3-(2-(trifluoromethyl)phenyl)-2,3-dihydro-1H-inden-5-yl)methoxy)-5,5a,6,6a-tetrahydrocyclopropa[4,5]cyclopenta[1,2-c]pyridine-6-carboxylic acid] | 15.4 nM | –
O=C(O)[C@H]1[C@@H]2Cc3cc(OCc4cc5c(cc4F)C(n4cccn4)CC5c4ccccc4C(F)(F)F)ncc3[C@@H]21 (single isomer, unassigned) [Example 58] | 818 nM | –
O=C(O)[C@H]1[C@@H]2Cc3cc(OCc4cc5c(cnn5-c5ccccc5C(F)(F)F)cc4F)ncc3[C@@H]21 [Example 77, (5aR,6S,6aS)-3-((5-fluoro-1-(2-(trifluoromethyl)phenyl)-1H-indazol-6-yl)methoxy)-5,5a,6,6a-tetrahydrocyclopropa[4,5]cyclopenta[1,2-c]pyridine-6-carboxylic acid] | 7.08 nM | –
O=C(O)[C@H]1[C@@H]2Cc3cc(OCc4cc5c(cc4F)CCOC5c4ccccc4C(F)(F)F)ncc3[C@@H]21 (single isomer, unassigned) [Example 60] | 10.8 nM | –
COc1ccc(F)c(N2CC(C)(C)c3cc(F)c(COc4cc5c(cn4)[C@H]4[C@@H](C5)[C@@H]4C(=O)O)cc32)c1 [Example 56, (5aR,6S,6aS)-3-((5-fluoro-1-(2-fluoro-5-methoxyphenyl)-3,3-dimethylindolin-6-yl)methoxy)-5,5a,6,6a-tetrahydrocyclopropa[4,5]cyclopenta[1,2-c]pyridine-6-carboxylic acid] | 43.8 nM | –
